The values that follow come from patent publication US11224614B2, “Compositions and methods for increasing iron intake in a mammal” (Solvotrin Therapeutics Limited, priority 2014, dated 2022).

Series [1] can be described thus: Simulated intestinal dissolution, pH 6.6 with pancreatin and bile acids. The series is classed as physicochemical. As to conditions: pH 6.6 over 1 hour, FIG. 5. The procedure: A solution of iron (II) sulfate in water (10 mM) was serially diluted using pH 1.8 KCl buffer. Aliquots (100 μl) of the diluted solutions were added to a 96-well plate containing 100 μl of 1,10-phenanthroline (5 mM). The plate was read at 490 nm on a multiwall plate reader in order to construct a calibration curve. Dissolution samples were diluted ten-fold typically at pH 1.6 into phenanthroline (5 mM) and the samples read rapidly under N2 blanketing.
A 50 mg quantity of beads was transferred to a vial containing 10M HCl (10 ml) and left overnight at room temperature. The resulting solution was shaken and then a 100 μl aliquot was transferred into 900 μl of 10M HCl. A 100 μl aliquot of the diluted solution was added to a 96-well plate containing 1M sodium thiocyanate (100 μl). Absorbance was measured at 450 nm on a multiwell plate reader. The concentration of the iron III was estimated by reference to a series of iron III standard solutions.
An accurately weighed sample (approximately 50 mg) of microbeads was transferred into a three necked vessel into which had been placed 15 ml pH 6.6 buffers (containing 0.1 M sodium bicarbonate, 10 mg/ml bile acid extract, 1.85 mg/ml pancreatin, adjust to pH 6.6 with 1M HCl) at 37° C. Generally, at 1, 15, 30, 45, 60 and occasionally at 90, 120 min time points, samples were taken for iron (II) and iron (III) measurement. […]

The nature of series [2]: In-vivo gastrointestinal tolerability (modified GSRS, Bristol Stool Chart), cross-over. Set-up: species or system human. As to conditions: modified GSRS 0-3, Bristol Stool Chart; p=0.02 and p=0.03. How it is done:
In a separate study using random, blinded, prospective allocation to beads prepared in accordance with the invention or FeSO4.7H2O in identical size 0 gelatin capsules, in-vivo gastrointesinal tolerability was assessed in a cross-over design. The test articles were taken in the morning after fasting for 10 hours with baseline and 2 hour fasting blood draws. After 2 hours fasting, food was taken as normal and over the following 24 hours, a modified Gastrointestinal Symptom Rating Scale (GSRS) was completed. This rates the following symptoms as 0=none, 1=mild, 2=moderate, 3=severe: • Abdominal pain/cramps • Nausea/vomiting • Abdominal bloating • Borborygmus (abdominal rumbling) • Flatulence/wind
In addition the products were taken on 3 consecutive days and the Bristol Stool Chart was used to assess constipation/diarrhoea. Positive score changes from baseline normality (=0) indicated constipation.

The nature of series [3]: In-vivo efficacy: randomised double-blind cross-over, serum iron over 0-6 hours in fasting subjects. As to conditions: primary endpoint, p=0.017.
Description: We evaluated the formulation in a randomised, double-blind, controlled with a 28 day cross-over to obtain a minimum of 6 paired evaluable healthy subjects with serum ferritin <100 ng/mL for comparison of the invention versus FeSO4.
In the analyses, comparisons between groups were conducted using paired sample t-tests for continuous variables and Wilcoxon's Rank Order tests for non-normal distributions. Shapiro-Wilks tests for normality were used to confirm assumptions that primary and secondary endpoints in the study population come from a normal distribution. If assumptions of normality were not possible, log-transformation was used or Wilcoxon's Rank Order tests were applied.
Subjects returned to the study site (within two weeks of Visit 1) for the first intervention day (Visit 2), after fasting since 10 pm the previous night. Subjects were pre-randomised into one of the two treatment groups with a washout period of four weeks between treatment phases: • Group 1: beads prepared in accordance with the invention, followed by FeSO4 • Group 2: FeSO4, followed by beads prepared in accordance with the invention
A blood sample was collected immediately after drinking the supplement and at 2 hours, 4 hours and 6 hours after dosing. […] Ferritin and haemoglobin were also assessed. […]

In the case of ferrous sulfate [FeSO4], the “iron II and total iron (ferrous and ferric) profile in dissolution” value in series [1] is “undergoes oxidation and precipitates as ferric hydroxides”. For the same substance, in series [2], the “symptoms scores for abdominal pain/cramps, nausea, flatulence and constipation” value is “Significantly higher symptoms scores”. Moreover, the “serum iron Trough to Peak Differential (TPD) over 0-6 hours, median” value in series [3] worked out at 9.7 µmol/L.
